The nature of series [1]: Identification of components and metabolites of YCHD in rat plasma, bile, urine and feces (UHPLC/Q-TOF-MS). It is filed as in vivo. The conditions noted are these: rats, oral YCHD 12 g/kg, urine, feces. On the procedure:
After centrifuging at 4000 rpm for 10 min, supernatant plasma was harvested into heparinized tubes and then stored at -20°C for preservation. The rats in the second group (n = 6) were kept individually in metabolic cages to collect urine and feces. […] Subsequently, the rats were orally administered a single dose of YCHD (12 g/kg of body weight). […] For the third group of rats (n = 6), bile duct intubation was implemented, and blank bile samples were collected before administration. After the administration of YCHD at 12 g/kg of body weight, the drug-containing bile samples were collected.
Plasma, bile, and urine samples (200 μL each) were separately precipitated with six times of methanol–acetonitrile mixed solution (v/v, 1:1; containing 1% formic acid). After being vortex mixed for 5 min and centrifuged at 15,000 rpm for 5 min at 4°C, the supernatant was separated into another clean tube and dried under a gentle stream of nitrogen at 45°C. Subsequently, the residue was reconstituted in 100 μL of 50% methanol–water (v/v) and then vortex mixed for 10 min. After another round of centrifugation at 15,000 rpm for 5 min at 4°C, 5 μL of the supernatant was analyzed by UHPLC-MS/MS. A 0.5 g sample of naturally dried feces was supplemented with 2 mL of 80% methanol–water (v/v) and then ultrasonically extracted for 30 min at 4°C. After being centrifuged at 15,000 rpm for 10 min, the supernatant was dried under a gentle stream of nitrogen at 45°C. Finally, the residue was reconstituted in 1 mL of 50% methanol–water (v/v) and then vortex mixed for 10 min. After another round of centrifugation at 15,000 rpm for 5 min at 4°C, 5 μL of the supernatant sample was injected into the UHPLC-MS/MS system for analysis.
Separations were conducted on an Agilent SB-C18 column (2.1 mm × 50 mm, 1.8 μm) of a UHPLC/Q-TOF-MS system (Waters, Corp., Milford, MA, United States) maintained at 40°C.
A Synapt G2 quadrupole time-of-flight (Q/TOF) MS/MS system (Waters, Corp., Manchester, United Kingdom) equipped with an electrospray ionization (ESI) interface was operated in negative ionization mode and controlled by MassLynx software (Version 4.1). The optimized conditions for maximum detection of metabolites were as follows: the capillary voltage was set at 3.0 kV, extraction cone voltage was set at 10 and 15 V, source temperature was maintained at 120°C, and desolvation temperature was maintained at 450°C. […] An MS^E approach using a dynamic ramp of collision energy was also applied at two (low and high collision energies) scan functions. The following parameters were set: Function 1 (low energy)—mass scan range, 100–1000; scan time, 0.25 s; interscan delay, 0.05 s; collision energy, 4 V. Function 2 (high energy)—mass scan range, 100–1000; scan time, 0.2 s; interscan delay, 0.05 s; collision energy ramp, 10–30 V. Data were acquired using Masslynx^TM (Version 4.1. Waters, Crop., Milford, MA, United States), and Metabolynx^TM (Waters, Crop., Milford, MA, United States) was applied for post-acquisition data processing.

Series [2] is described as follows: Pharmacokinetic study of YCHD components and phase II metabolites in normal rats (UHPLC-MS/MS, sulfatase enzymolysis). The following applies: for direct detection of the prototype in rat plasma after YCHD administration: before enzymolysis, transformed into phase II metabolites completely; for Tmax: po, 12 g/kg; for CL/F: read-out: CLz/F; for Vd/F: read-out: Vz/F. It is filed as in vivo, rat. On the procedure: To explore the pharmacokinetic properties of YCHD following intragastric administration in rats, a rapid and sensitive method involving the use of UHPLC-MS/MS (Agilent 6460 series, Agilent Technologies, Santa Clara, CA, United States) was developed and validated for the simultaneous quantification of 10 active components of rat plasma. The quantification was conducted in ESI negative ionization mode, and the mass spectrometry conditions were as follows: capillary voltage, 3500 V; gas flow, 12 L/min; nebulizer, 40 psi; gas temperature, 350°C; and delta EMV (-), 400. A 5 μL extraction sample was injected into the column (Agilent SB-C18 column, 2.1 mm × 50 mm, 1.8 μm) and eluted at 0.4 mL/min with a gradient elution of water (with 0.4% v/v formic acid) (A) and acetonitrile (B) (0–3 min, 5–60% B; 3–5 min, 60–90% B; 5–5.1 min, 90–5% B; and re-equilibration for 3 min).
(§1) To each 50 μL plasma sample, 10 μL of internal standard solution (paeoniflorin, 1000 ng/mL) and 300 μL of a mixed solution of methanol and acetonitrile (v/v, 1:1; containing 1% formic acid) were added. Subsequently, the solution was vortex mixed for 5 min. After centrifugation at 15,000 rpm for 5 min, the supernatant was transferred completely into a tube, before being evaporated under N2 at 40°C. The residue was then dissolved in 50 μL of 50% methanol–water (v/v, 1:1) through vortexing for 5 min, after centrifugation at 15,000 rpm for 10 min. Finally, 5 μL of the supernatant sample was injected into the UHPLC-MS/MS system for analysis.
The rats were randomly divided into two groups (n = 5 for each group). […] After 24 h, the two groups of rats received a single oral dose of YCHD (12 g/kg). Blood was collected in heparinized tubes at 5, 15, 30, 45, 60, 120, 240, 360, 480, 720, and 1440 min after administration. The blood samples were centrifuged at 4000 rpm for 10 min, and the supernatant plasma was harvested. Plasma samples (50 μL) were immediately processed as outlined in Section “Chromatographic and Mass Spectrometry Conditions.”
(§2) Additional plasma samples (50 μL) were enzymatically hydrolyzed with 50 μL of enzyme solution (65.86 mg of sulfatase, dissolved in 2 mL of sodium acetate buffer, pH 5.0) for phase II metabolite quantification, in accordance with our previous study ([Ding et al., 2012]). After being vortex mixed for 5 min, the mixture was incubated at 37°C for 30 min and then returned to room temperature. Subsequently, the samples were processed as outlined in Section “Chromatographic and Mass Spectrometry Conditions” for UHPLC-MS/MS analysis. During routine analysis, each analytical run included six blank plasma samples, a set of calibration samples, a set of QC samples, and unknowns.
(§3) All data are presented as mean ± SD. A one-way analysis of variance was used to compare data between two groups using SPSS (Version 21.0). The differences were considered to be statistically significant when p < 0.05 and highly significant when p < 0.01 or p < 0.001. Pharmacokinetic data analysis was performed using DAS 2.1.1 software (Mathematical Pharmacology Professional Committee of China, Shanghai, China).
After sulfatase-aided enzymolysis, all the phase II metabolites could transform into their prototypes, including rhein, emodin, genipin, and capillarisin. The specific contents of the phase II metabolites of these components were detected indirectly by evaluating the content difference of their prototypes in samples after enzymolysis and before enzymolysis
(§4) CG = Ca −[MG × (CGG/MGG + CGe/MGe)]
Ca, CGG, and CGe represent the concentration of genipin, genipin-1-β-D-gentiobioside, and geniposide after enzymolysis of sulfatase, respectively. MG, MGG-, and MGe represent the mass of genipin, genipin-1-β-D-gentiobioside, and geniposide, respectively. The pharmacokinetic curves of phase II metabolites are illustrated in Figure 4B.

Series [3] can be described thus: Pharmacokinetic study of YCHD components and phase II metabolites in ANIT-induced cholestatic rats (UHPLC-MS/MS, sulfatase enzymolysis). It counts as in vivo, rat. The conditions noted are these: for AUC(0-∞) / Ka: Model group (ANIT 50 mg/kg cholestatic rats); for AUC(0-∞) / Ka / Cmax / Tmax / CL/F / MRT inf / Vd/F / half-life: plasma; for Cmax / Tmax / CL/F / MRT inf / Vd/F / half-life: rat, po, 12 g/kg; for CL/F: read-out: CLz/F; for MRT inf: read-out: MRT (0-∞) (converted); for Vd/F: read-out: Vz/F; for half-life: read-out: t1/2z. The protocol: To explore the pharmacokinetic properties of YCHD following intragastric administration in rats, a rapid and sensitive method involving the use of UHPLC-MS/MS (Agilent 6460 series, Agilent Technologies, Santa Clara, CA, United States) was developed and validated for the simultaneous quantification of 10 active components of rat plasma. The quantification was conducted in ESI negative ionization mode, and the mass spectrometry conditions were as follows: capillary voltage, 3500 V; gas flow, 12 L/min; nebulizer, 40 psi; gas temperature, 350°C; and delta EMV (-), 400.
as §1
The rats were randomly divided into two groups (n = 5 for each group). […] The blood samples were centrifuged at 4000 rpm for 10 min, and the supernatant plasma was harvested. Plasma samples (50 μL) were immediately processed as outlined in Section “Chromatographic and Mass Spectrometry Conditions.”
as §2, §3
The specific contents of the phase II metabolites of these components were detected indirectly by evaluating the content difference of their prototypes in samples after enzymolysis and before enzymolysis
as §4
Ca, CGG, and CGe represent the concentration of genipin, genipin-1-β-D-gentiobioside, and geniposide after enzymolysis of sulfatase, respectively. MG, MGG-, and MGe represent the mass of genipin, genipin-1-β-D-gentiobioside, and geniposide, respectively.

Setting [4] is: Control group (normal rats), single oral YCHD 12 g/kg, plasma.
[5] abbreviates: Sprague Dawley, rat, plasma, in normal and cholestatic rats after oral administration of YCHD.
[6] abbreviates: Sprague Dawley, rat, Control group (normal rats), single oral YCHD 12 g/kg, plasma.
The mark [7] stands for this setting: rat, Control group (normal rats), single oral YCHD 12 g/kg, plasma.

Each structure is given as a SMILES string.

Regarding `CC(=O)c1ccc(OS(=O)(=O)O)cc1` [M6, 4-Hydroxyacetophenone-1-O-SO3], the “Source (biological samples in which the compound was identified)” value in series [1] is listed as “Plasma, bile, urine, feces”.

In the case of `COC(=O)C1=COC(OC2OC(C(=O)O)C(O)C(O)C2O)C2C(CO)=CCC12` (stereo not shown) [M2, Genipin-1-O-gluA], the “Source (biological samples in which the compound was identified)” value in series [1] was “Plasma, bile, urine, feces”.

For the compound `Cc1cc(O)c2c(c1)C(=O)c1cc(O)cc(O)c1C2=O` [Emodin], the “direct detection of the prototype in rat plasma after YCHD administration” value (shortened to “direct detection of the prototype”) in series [2] is given as “could not be detected directly”. Further, the “Source (biological samples in which the compound was identified)” value in series [1] is “Plasma, bile, urine, feces”.

In the case of `O=C(O)/C=C/c1ccc(O)c(O)c1` [Caffeic acid], in series [2] (setting [4]), the “AUC(0-∞)” value stood at 63847.8 ± 53249.0 µg·min/L and the Ka came to 119.2 ± 82.6 min⁻¹. Moreover, in series [2] (Sprague Dawley, rat, plasma, Control group (normal rats), single oral YCHD 12 g/kg, plasma), the Tmax (as a rule, the time at which the peak concentration occurs) is 15 min. Besides, the time of peak concentration (Tmax) in series [2] (setting [5]) is no more than 27 min. Further, in series [2] (setting [6]), the Cmax (in general, the maximum level reached in the sampled fluid or tissue) was found to be 286 ± 14.5 ng/mL and the CL/F amounted to 445 ± 38 mL/min/kg. For the same compound, the MRT inf in series [2] (Sprague Dawley, rat, Control group (normal rats), single oral YCHD 12 g/kg, plasma, read-out: MRT (0-∞) (converted)) was 85.3 min. The Vd/F in series [2] (setting [7]) stood at 35.7 ± 29.1 L/kg. For the same compound, the half-life in series [2] (rat, Control group (normal rats), single oral YCHD 12 g/kg, plasma, read-out: t1/2z) came to 56.3 ± 43 min. In addition, in series [3] (single oral YCHD 12 g/kg), the “AUC(0-∞)” value amounted to 32651.4 ± 19640.7 µg·min/L; the Ka is 75.2 ± 24.5 min⁻¹; the “AUC(0-∞) increased by, cholestatic model rats compared with normal rats” value is recorded as 191.3%; the “AUC(0-∞) reduced by, cholestatic model rats compared with normal rats” value was found to be 48.9%. In addition, in series [3] (single oral YCHD 12 g/kg), the “Cmax increased by, cholestatic model rats compared with normal rats” value was 138.8% and the “Cmax reduced by, cholestatic model rats compared with normal rats” value is reported as 72.4%. Also, in series [3] (Sprague Dawley), the highest concentration (Cmax) is 78.9 ± 4.9 ng/mL, the Tmax was 24 min, the CL/F turned out to be 1190 ± 95 mL/min/kg and the MRT inf is 103 min. In series [3], the Vd/F stood at 132 ± 39.7 L/kg and the half-life was found to be 80.1 ± 27.5 min.

With `COC(=O)C1=COC(OS(=O)(=O)O)C2C(CO)=CCC12` (stereo not shown) [M3, Genipin-1-O-SO3], the “Source (biological samples in which the compound was identified)” value in series [1] is given as “Bile, urine, feces”.

As to `COc1c(O)cc2oc(Oc3ccc(O)cc3)cc(=O)c2c1O` [Capillarisin], in series [2], the “direct detection of the prototype” value was “could not be detected directly”. Further, the “Source (biological samples in which the compound was identified)” value in series [1] is “Urine, feces”.

`COC(=O)C1=CO[C@@H](O)[C@@H]2C(CO)=CC[C@H]12` [Genipin]: the “direct detection of the prototype” value in series [2] is “could not be detected directly”. Further, the “Source (biological samples in which the compound was identified)” value in series [1] is listed as “Bile, urine, feces”.

Turning to `Cc1cc(O)c2c(c1)C(=O)c1cc(OS(=O)(=O)O)cc(O)c1C2=O` [M7, Emodin-O-SO3], the “Source (biological samples in which the compound was identified)” value in series [1] is on record as “Plasma, urine, feces”.

For the compound `O=C(/C=C/c1ccc(O)c(O)c1)O[C@@H]1C[C@](O)(C(=O)O)C[C@@H](O)[C@H]1O` [Chlorogenic acid], in series [2] (setting [4]), the “AUC(0-∞)” value amounted to 11559.2 ± 5248.0 µg·min/L and the Ka worked out at 19.0 ± 16.288 min⁻¹. The Tmax in series [2] (setting [5]) is no more than 27 min. Further, the Tmax in series [2] (rat, plasma, Control group (normal rats), single oral YCHD 12 g/kg, plasma) is 15 min. In addition, in series [2] (setting [7]), the Cmax stood at 33 ± 4.5 ng/mL, the CL/F came to 1480 ± 921 mL/min/kg and the Vd/F is 3800 ± 2060 L/kg. For the same compound, in series [3] (single oral YCHD 12 g/kg), the “AUC(0-∞)” value stood at 21437.2 ± 12572.8 µg·min/L and the Ka worked out at 38.945 ± 18.022 min⁻¹. Moreover, in series [3], the Cmax is 78.9 ± 4.9 ng/mL, the time to peak (Tmax) was 27 min, the CL/F was 1360 ± 523 mL/min/kg and the MRT inf was 1990 min. Besides, in series [3], the Vd/F was determined as 2110 ± 1660 L/kg and the half-life worked out at 1660 ± 2120 min.

For the origin of these results see PMC5962729 (Frontiers in Pharmacology, 2018).
